Laboratory results reported in PMC11905058, “Novel Leech Antimicrobial Peptides, Hirunipins: Real‐Time 3D Monitoring of Antimicrobial and Antibiofilm Mechanisms Using Optical Diffraction Tomography” (Advanced Science, 2025).
No end group written: not given here.

Legend:
MDRAB (329-53) [1] = conditions: for FICI: fractional inhibitory concentration index, FICA + FICB / Interpretation of FICI: antibiotic in combination with hirunipin 2; for MICA: MIC of antibiotic alone: checkerboard, MDRAB, 1×10^6 CFU/mL; for FICA: fractional inhibitory concentration of antibiotic ([A] / MICA) / [A]: MIC of antibiotic in combination: in combination with hirunipin 2
Method: Synergy testing by checkerboard assay: Briefly, each 96-well microtiter plate was inoculated with two-fold serial dilutions of two antibiotics, ranging from 1/8 MIC to 2 MIC, such that one antibiotic was inoculated in the columns and the other in the rows. Then, MDRAB (329-53) cells were inoculated at a concentration of 1× 10^6 CFU/mL. The plates were incubated overnight under static conditions and observed visually.

E. coli (KCTC 1682) = assay type: cell-based, Escherichia coli; conditions: KCTC 1682, 24 h
Method: (§1) The salt sensitivity of the peptides was also analyzed. […] The MIC values in the physiological environment were determined as described above, and data were acquired from three independent assays performed in triplicate. Minimal Inhibitory Concentrations (MICs): Bacteria were grown to mid-logarithmic phase and diluted in Mueller-Hinton broth (MHB) (Difco). The bacterial suspension (1×10^6 CFU/well) was added to a 96-well microtiter plate along with a two-fold serial dilution of samples. The plate was incubated at 37 °C for 24 hours and the bacterial growth inhibition was assessed by measuring the optical density using an ELISA plate reader. The minimum inhibitory concentration (MIC) was defined as the lowest concentration of samples that prevented visible bacterial growth.

MDRKP (328-83) = assay type: cell-based, Klebsiella pneumonia; conditions: 24 h
Method: (§2) The MICs of the peptides were measured by the Clinical and Laboratory Standards Institute (CLSI) broth microdilution method, as outlined in a previous study.^[ [26], [27] ^]
(§3) Microbial Strains and Cell Lines: Multiple bacterial strains were used in this study. Standard stains included Escherichia coli (KCTC 1682), Pseudomonas aeruginosa (KCTC 1637), Staphylococcus aureus (KCTC1621) and Staphylococcus epidermidis (KCTC 1917) supplied from the Korean Collection for Type Cultures (KCTC) of the Korea Research Institute of Bioscience and Biotechnology (KRIBB). Clinically isolated multidrug-resistant bacteria included multidrug-resistant Klebsiella pneumonia (MDRKP 328-83), multidrug-resistant Acinetobacter baumannii (MDRAB 329-53), multidrug-resistant Pseudomonas aeruginosa (MDRPA 314-69), multidrug-resistant Enterobacter cloacae (MDRE 328-84) and multidrug-resistant Escherichia coli (MDREC 329-66) provided from Hospital of Chosun University, Korea. All bacterial strains were stored in 20% glycerol at −80 °C. For the subsequent experiments, the bacteria were recovered and cultured in the corresponding enrichment broth at 37 °C. The mouse macrophage RAW264.7, mouse fibroblast NIH-3T3 and human keratinocyte HaCat cells were cultured in Dulbecco’s modified Eagle’s medium (DMEM), supplemented with 10% (v/v) of fetal bovine serum (Sigma-Aldrich), 100 U/mL of penicillin and 0.1 mg/mL of streptomycin, at 37 °C in the presence of 5% CO2
(§4) Minimal Inhibitory Concentrations (MICs): Bacteria were grown to mid-logarithmic phase and diluted in Mueller-Hinton broth (MHB) (Difco). The bacterial suspension (1×10^6 CFU/well) was added to a 96-well microtiter plate along with a two-fold serial dilution of samples. The plate was incubated at 37 °C for 24 hours and the bacterial growth inhibition was assessed by measuring the optical density using an ELISA plate reader. The minimum inhibitory concentration (MIC) was defined as the lowest concentration of samples that prevented visible bacterial growth.

MDRE (328-84) = assay type: cell-based, Enterobacter cloacae; conditions: 24 h
Method: as §2, §3, §4

MDREC (329-66) = assay type: cell-based, Escherichia coli; conditions: 24 h
Method: as §2, §3, §4

S. aureus (KCTC1621) = assay type: cell-based, Staphylococcus aureus; conditions: KCTC1621, 24 h
Method: as §1

MDRAB (329-53) [2] = assay type: cell-based, Acinetobacter baumannii; conditions: 24 h
Method: as §2, §3, §4

[3] = system: Staphylococcus aureus [KCTC1621]; assay type: cell-based; conditions: KCTC1621, 24 h
Method: as §2, §4

[4] = system: Pseudomonas aeruginosa [KCTC 1637]; assay type: cell-based; conditions: KCTC 1637, 24 h
Method: as §2, §4

[5] = system: Escherichia coli [KCTC 1682]; assay type: cell-based; conditions: KCTC 1682, 24 h
Method: as §2, §4

[6] = system: Staphylococcus epidermidis [KCTC 1917]; assay type: cell-based; conditions: KCTC 1917, 24 h
Method: as §2, §4

MDRPA (314-69) = assay type: cell-based, Pseudomonas aeruginosa; conditions: 24 h
Method: as §2, §3, §4

O=C(N[C@H](CO)[C@H](O)c1ccc([N+](=O)[O-])cc1)C(Cl)Cl [CHL, Chloramphenicol]
FICI: fractional inhibitory concentration index, FICA + FICB (MDRAB (329-53) [1]): 0.1875
Interpretation of FICI (MDRAB (329-53) [1]): synergy (FICI ≤ 0.5 was interpreted as synergy)
MICA: MIC of antibiotic alone (MDRAB (329-53) [1]): 1024 µg/mL
FICA: fractional inhibitory concentration of antibiotic ([A] / MICA) (MDRAB (329-53) [1]): 0.125
[A]: MIC of antibiotic in combination (MDRAB (329-53) [1]): 128 µg/mL

O=C(O)c1cn(C2CC2)c2cc(N3CCNCC3)c(F)cc2c1=O [CIP, Ciprofloxacin]
Interpretation of FICI (MDRAB (329-53) [1]): synergy (FICI ≤ 0.5 was interpreted as synergy)
MICA: MIC of antibiotic alone (MDRAB (329-53) [1]): 128 µg/mL
FICA: fractional inhibitory concentration of antibiotic ([A] / MICA) (MDRAB (329-53) [1]): 0.25
[A]: MIC of antibiotic in combination (MDRAB (329-53) [1]): 32 µg/mL

CO[C@H]1/C=C/O[C@@]2(C)Oc3c(C)c(O)c4c(O)c(c(/C=N/N5CCN(C)CC5)c(O)c4c3C2=O)NC(=O)/C(C)=C\C=C\[C@H](C)[C@H](O)[C@@H](C)[C@@H](O)[C@@H](C)[C@H](OC(C)=O)[C@@H]1C [RIF, Rifampicin]
FICI: fractional inhibitory concentration index, FICA + FICB (MDRAB (329-53) [1]): 0.3125
Interpretation of FICI (MDRAB (329-53) [1]): synergy (FICI ≤ 0.5 was interpreted as synergy)
MICA: MIC of antibiotic alone (MDRAB (329-53) [1]): 16 µg/mL
FICA: fractional inhibitory concentration of antibiotic ([A] / MICA) (MDRAB (329-53) [1]): 0.0625
[A]: MIC of antibiotic in combination (MDRAB (329-53) [1]): 1 µg/mL

LLKKLLRSLIKPAIMKIINTPPQEKLQK-NH2 [Hirunipin 1]
MIC against E. coli (KCTC 1682), 4 µM FeCl3 (E. coli (KCTC 1682)): 128 µg/mL
MIC against E. coli (KCTC 1682), 6 µM NH4Cl (E. coli (KCTC 1682)): 128 µg/mL
MIC against E. coli (KCTC 1682), 1 mM MgCl2 (E. coli (KCTC 1682)): 256 µg/mL
MIC against E. coli (KCTC 1682), 2.5 mM CaCl2 (E. coli (KCTC 1682)): 256 µg/mL
MIC against E. coli (KCTC 1682), 4.5 mM KCl (E. coli (KCTC 1682)): 256 µg/mL
MIC against E. coli (KCTC 1682), 150 mM NaCl (E. coli (KCTC 1682)): 256 µg/mL
MIC against E. coli (KCTC 1682), 25% Human serum (E. coli (KCTC 1682)): 128 µg/mL
MIC against E. coli (KCTC 1682), Control (E. coli (KCTC 1682)): 64 µg/mL
Minimum inhibitory concentrations, MDRKP (328-83) (MDRKP (328-83)): >128 µg/mL
Minimum inhibitory concentrations, MDRE (328-84) (MDRE (328-84)): >128 µg/mL
Minimum inhibitory concentrations, MDREC (329-66) (MDREC (329-66)): 64 µg/mL
MIC against S. aureus (KCTC1621), 4 µM FeCl3 (S. aureus (KCTC1621)): 64 µg/mL
MIC against S. aureus (KCTC1621), 6 µM NH4Cl (S. aureus (KCTC1621)): 256 µg/mL
MIC against S. aureus (KCTC1621), 1 mM MgCl2 (S. aureus (KCTC1621)): 256 µg/mL
MIC against S. aureus (KCTC1621), 2.5 mM CaCl2 (S. aureus (KCTC1621)): 256 µg/mL
MIC against S. aureus (KCTC1621), 4.5 mM KCl (S. aureus (KCTC1621)): 256 µg/mL
MIC against S. aureus (KCTC1621), 150 mM NaCl (S. aureus (KCTC1621)): 256 µg/mL
MIC against S. aureus (KCTC1621), 25% Human serum (S. aureus (KCTC1621)): 256 µg/mL
MIC against S. aureus (KCTC1621), Control (S. aureus (KCTC1621)): 64 µg/mL
Minimum inhibitory concentrations, MDRAB (329-53) (MDRAB (329-53) [2]): >128 µg/mL
Minimum inhibitory concentration (MIC), Staphylococcus aureus [KCTC1621] [3]: 64 µg/mL
Minimum inhibitory concentration (MIC), Pseudomonas aeruginosa [KCTC 1637] [4]: 32 µg/mL
Minimum inhibitory concentration (MIC), Escherichia coli [KCTC 1682] [5]: 64 µg/mL
Minimum inhibitory concentration (MIC), Staphylococcus epidermidis [KCTC 1917] [6]: 32 µg/mL
Minimum inhibitory concentrations, MDRPA (314-69) (MDRPA (314-69)): 64 µg/mL

QKFNGKSYALAKKMKKRQVKFLNRILDQL [LP19]
Minimum inhibitory concentration (MIC), Staphylococcus aureus [KCTC1621] [3]: >128 µg/mL
Minimum inhibitory concentration (MIC), Pseudomonas aeruginosa [KCTC 1637] [4]: >128 µg/mL
Minimum inhibitory concentration (MIC), Escherichia coli [KCTC 1682] [5]: >128 µg/mL
Minimum inhibitory concentration (MIC), Staphylococcus epidermidis [KCTC 1917] [6]: >128 µg/mL

VLNVQSIMSWNKRVGGMILNLKT [LP11]
Minimum inhibitory concentration (MIC), Staphylococcus aureus [KCTC1621] [3]: >128 µg/mL
Minimum inhibitory concentration (MIC), Pseudomonas aeruginosa [KCTC 1637] [4]: >128 µg/mL
Minimum inhibitory concentration (MIC), Escherichia coli [KCTC 1682] [5]: >128 µg/mL
Minimum inhibitory concentration (MIC), Staphylococcus epidermidis [KCTC 1917] [6]: >128 µg/mL

YFKIIKFLPKALKCLLPQKHKEHGNL-NH2 [Hirunipin 3]
MIC against E. coli (KCTC 1682), 4 µM FeCl3 (E. coli (KCTC 1682)): 32 µg/mL
MIC against E. coli (KCTC 1682), 6 µM NH4Cl (E. coli (KCTC 1682)): 64 µg/mL
MIC against E. coli (KCTC 1682), 1 mM MgCl2 (E. coli (KCTC 1682)): 256 µg/mL
MIC against E. coli (KCTC 1682), 2.5 mM CaCl2 (E. coli (KCTC 1682)): 32 µg/mL
MIC against E. coli (KCTC 1682), 4.5 mM KCl (E. coli (KCTC 1682)): 128 µg/mL
MIC against E. coli (KCTC 1682), 150 mM NaCl (E. coli (KCTC 1682)): 128 µg/mL
MIC against E. coli (KCTC 1682), 25% Human serum (E. coli (KCTC 1682)): 256 µg/mL
MIC against E. coli (KCTC 1682), Control (E. coli (KCTC 1682)): 128 µg/mL
Minimum inhibitory concentrations, MDRKP (328-83) (MDRKP (328-83)): >128 µg/mL
Minimum inhibitory concentrations, MDRE (328-84) (MDRE (328-84)): >128 µg/mL
Minimum inhibitory concentrations, MDREC (329-66) (MDREC (329-66)): 128 µg/mL
MIC against S. aureus (KCTC1621), 4 µM FeCl3 (S. aureus (KCTC1621)): >256 µg/mL
MIC against S. aureus (KCTC1621), 6 µM NH4Cl (S. aureus (KCTC1621)): 256 µg/mL
MIC against S. aureus (KCTC1621), 1 mM MgCl2 (S. aureus (KCTC1621)): 256 µg/mL
MIC against S. aureus (KCTC1621), 2.5 mM CaCl2 (S. aureus (KCTC1621)): 256 µg/mL
MIC against S. aureus (KCTC1621), 4.5 mM KCl (S. aureus (KCTC1621)): 256 µg/mL
MIC against S. aureus (KCTC1621), 150 mM NaCl (S. aureus (KCTC1621)): 256 µg/mL
MIC against S. aureus (KCTC1621), 25% Human serum (S. aureus (KCTC1621)): >256 µg/mL
MIC against S. aureus (KCTC1621), Control (S. aureus (KCTC1621)): 128 µg/mL
Minimum inhibitory concentrations, MDRAB (329-53) (MDRAB (329-53) [2]): >128 µg/mL
Minimum inhibitory concentration (MIC), Staphylococcus aureus [KCTC1621] [3]: 128 µg/mL
Minimum inhibitory concentration (MIC), Pseudomonas aeruginosa [KCTC 1637] [4]: 128 µg/mL
Minimum inhibitory concentration (MIC), Escherichia coli [KCTC 1682] [5]: 128 µg/mL
Minimum inhibitory concentration (MIC), Staphylococcus epidermidis [KCTC 1917] [6]: 64 µg/mL
Minimum inhibitory concentrations, MDRPA (314-69) (MDRPA (314-69)): >128 µg/mL
